Assay: Permeability through monolayer of Caco-2 cells
Format: in vitro ADME
Settings: human, Caco-2 monolayer
Excerpt: 2) Assessment of permeability through monolayer of Caco-2 cells.
Assessment of permeability through the monolayer of Caco-2 cells allows to evaluate the ability of the candidate compounds to penetrate through biological membranes by active and passive transport.
Caco-2, the cells of the intestinal epithelium, had been cultured in transwell plate inserts with the filters (with pores of 0.4 μm, BD Falcon with High Density) for 21 days, and then the integrity of the monolayer were estimated with Lucifer Yellow (Sigma-Aldrich, USA) by standard protocol. When setting the A→B transfer (“intestinal lumen”—“blood stream” transfer), solutions of test substances were added in a buffer with pH 6.5 (HBSS, 10 mM HEPES, 15 mM glucose solution) with the concentration of 10 μM into the upper chamber; the lower chamber was filled with a buffer with pH 7.4 (HBSS, 10 mM HEPES, 15 mM Glucose, 1% BSA). When setting B→A transfer (“blood stream”—“intestinal lumen” transfer), the upper chamber was filled with the buffer with pH 6.5, and solutions of the test substances were added in the buffer with pH 7.4 at the concentration of 10 μM in the lower chamber. Propranolol was used as a control substance (as it has high permeability).
After incubating for 2 h at 37° C. under 5% CO2, the amounts of test substances were determined in the upper and lower chambers by HPLC using Agilent1200 chromatograph (Agilent, USA) with preliminary protein precipitation with acetonitrile. We used gradient elution (1 mL/min flow rate). We determined the areas of peaks corresponding to the compounds. On the basis of peak areas in the calibration standards we determined the concentration of compound in the initial solution and in the samples from the wells of the upper and lower chambers. Papp, permeability through the cell layer, was calculated using the following formula:
Papp=(C(t)*V)/(C(0)*t*Area), wherein
The value was calculated with the following formula:
efflux=Papp B-A/Papp A-B, wherein • Papp A-B—the volume of permeability in A→B test; • Papp B-A—he volume of permeability in B→A test.

Papp A→B at 2 h, 10 µM (A→B, 10 μM, pH 6.5 upper / pH 7.4 lower, 2 h at 37° C.): 2.5 ×10⁻⁶ cm/s
efflux ratio at 2 h, 10 µM (Papp B-A/Papp A-B): 0.4
SMILES: C=CC(=O)Nc1cc(Nc2nccc(C(=O)c3ccc(OCCC)cc3OCCC)n2)c(OC)cc1N(C)CCN(C)C [EGFR_3365_70, N-(2-((2-(dimethylamino)ethyl)(methyl)amino)-5-((4-(2,4-dipropoxybenzoyl)pyrimidin-2-yl)amino)-4-methoxyphenyl)acrylamide]

From patent US20200339544A1 (JOINT STOCK COMPANY "BIOCAD", priority 2017, published 2020)
